In ChEMBL document CHEMBL4425149, “Lead optimization of a pyrazolo[1,5-a]pyrimidin-7(4H)-one scaffold to identify potent, selective and orally bioavailable KDM5 inhibitors suitable for in vivo biological studies” (Bioorg Med Chem Lett, 2016):
The source made the active and inactive calls. The calls are words filed in the database; no cut-off is given here.

How the values were obtained:
[1] = Inhibition of KDM5 in human PC9 cells assessed as demethylation of H3K4Me3; type: cell-based; conditions: PC-9
[2] = molecular target: Lysine-specific demethylase 5A (Homo sapiens, UniProt P29375); test: Inhibition of KDM5A (unknown origin)
[3] = Protein binding in human plasma; type: ADME, cell-free; conditions: read-out: PPB (converted)
[4] = Octanol-aqueous buffer distribution coefficient, log D of the compound at pH 7.4; type: physicochemical
[5] = Dissociation constant, pKa of the compound; type: physicochemical
[6] = Volume of distribution in CD-1 mouse at 1 mg/kg, iv or 5 mg/kg, po; type: ADME, organism-based; conditions: in vivo
[7] = Clearance in CD-1 mouse plasma at 1 mg/kg, iv or 5 mg/kg, po; type: ADME, organism-based
[8] = Half life in CD-1 mouse at 1 mg/kg, iv or 5 mg/kg, po; type: ADME, organism-based; conditions: in vivo
[9] = Oral bioavailability in CD-1 mouse at 5 mg/kg; type: ADME, organism-based; conditions: in vivo
[10] = molecular target: Lysine-specific demethylase 6A (Homo sapiens) (UniProt O15550); test: Inhibition of KDM6A (unknown origin)
[11] = molecular target: Histone lysine demethylase PHF8 (Homo sapiens) (UniProt Q9UPP1); test: Inhibition of KDM7B (unknown origin)
[12] = fCmax in mouse at 50 mg/kg, po bid; type: ADME, organism-based; conditions: in vivo
[13] = molecular target: T1, Lysine-specific demethylase 2B (Homo sapiens) (UniProt Q8NHM5); test: Inhibition of KDM2B (unknown origin)
T1 sequence (whole entry): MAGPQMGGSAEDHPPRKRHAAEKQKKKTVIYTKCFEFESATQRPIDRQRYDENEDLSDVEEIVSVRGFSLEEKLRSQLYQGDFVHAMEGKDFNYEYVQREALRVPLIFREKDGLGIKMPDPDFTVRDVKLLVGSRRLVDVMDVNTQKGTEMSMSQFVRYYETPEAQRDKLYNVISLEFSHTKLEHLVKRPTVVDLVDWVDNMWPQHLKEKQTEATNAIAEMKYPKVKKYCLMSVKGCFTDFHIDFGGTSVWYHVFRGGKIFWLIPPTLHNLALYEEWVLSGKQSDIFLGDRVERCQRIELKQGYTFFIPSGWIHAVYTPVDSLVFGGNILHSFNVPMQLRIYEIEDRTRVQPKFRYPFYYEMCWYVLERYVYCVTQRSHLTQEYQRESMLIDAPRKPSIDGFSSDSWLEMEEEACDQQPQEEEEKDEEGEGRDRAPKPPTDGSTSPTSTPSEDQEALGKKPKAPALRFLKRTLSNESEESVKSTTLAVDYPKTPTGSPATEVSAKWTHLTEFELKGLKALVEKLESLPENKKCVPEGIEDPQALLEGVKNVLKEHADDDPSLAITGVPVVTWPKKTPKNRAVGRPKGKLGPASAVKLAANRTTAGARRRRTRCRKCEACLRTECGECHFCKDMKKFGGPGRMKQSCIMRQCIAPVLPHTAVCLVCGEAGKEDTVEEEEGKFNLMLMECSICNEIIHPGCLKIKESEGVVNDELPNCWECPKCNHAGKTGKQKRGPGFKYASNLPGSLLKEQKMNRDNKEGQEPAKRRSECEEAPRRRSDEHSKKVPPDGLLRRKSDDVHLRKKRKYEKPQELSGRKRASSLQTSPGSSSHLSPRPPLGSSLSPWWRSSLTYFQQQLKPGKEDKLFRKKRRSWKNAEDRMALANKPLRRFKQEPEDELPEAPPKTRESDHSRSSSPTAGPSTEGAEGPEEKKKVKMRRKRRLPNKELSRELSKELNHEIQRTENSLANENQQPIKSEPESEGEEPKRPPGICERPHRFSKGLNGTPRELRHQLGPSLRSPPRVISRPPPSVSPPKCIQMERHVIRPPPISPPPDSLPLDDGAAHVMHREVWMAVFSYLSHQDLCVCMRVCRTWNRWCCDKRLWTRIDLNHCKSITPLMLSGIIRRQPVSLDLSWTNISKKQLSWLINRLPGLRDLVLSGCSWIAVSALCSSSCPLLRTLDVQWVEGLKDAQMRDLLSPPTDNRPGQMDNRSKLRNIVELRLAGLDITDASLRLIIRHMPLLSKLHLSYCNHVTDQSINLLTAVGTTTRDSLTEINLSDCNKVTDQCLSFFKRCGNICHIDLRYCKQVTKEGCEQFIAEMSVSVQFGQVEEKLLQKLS

[14] = molecular target: Lysine-specific demethylase 5C (Homo sapiens, UniProt P41229); test: Inhibition of KDM5C (unknown origin)
[15] = molecular target: Lysine-specific demethylase 3B (Homo sapiens) (UniProt Q7LBC6); test: Inhibition of KDM3B (unknown origin)
[16] = molecular target: Lysine-specific demethylase 5B (Homo sapiens, UniProt Q9UGL1); test: Inhibition of KDM5B (unknown origin)
[17] = molecular target: Lysine-specific histone demethylase 1A (Homo sapiens) (UniProt O60341); test: Inhibition of KDM1A (unknown origin)
[18] = Protein binding in mouse plasma; type: ADME, cell-free; conditions: read-out: PPB (converted)
[19] = Cmax in mouse at 50 mg/kg, po bid; type: ADME, organism-based; set-up: dose 50 mg/kg, route oral; conditions: in vivo
[20] = Dissociation constant, pKa of the compound at pH 7.4; type: physicochemical

Lysine-specific demethylase 5A, sequence (P29375 whole entry): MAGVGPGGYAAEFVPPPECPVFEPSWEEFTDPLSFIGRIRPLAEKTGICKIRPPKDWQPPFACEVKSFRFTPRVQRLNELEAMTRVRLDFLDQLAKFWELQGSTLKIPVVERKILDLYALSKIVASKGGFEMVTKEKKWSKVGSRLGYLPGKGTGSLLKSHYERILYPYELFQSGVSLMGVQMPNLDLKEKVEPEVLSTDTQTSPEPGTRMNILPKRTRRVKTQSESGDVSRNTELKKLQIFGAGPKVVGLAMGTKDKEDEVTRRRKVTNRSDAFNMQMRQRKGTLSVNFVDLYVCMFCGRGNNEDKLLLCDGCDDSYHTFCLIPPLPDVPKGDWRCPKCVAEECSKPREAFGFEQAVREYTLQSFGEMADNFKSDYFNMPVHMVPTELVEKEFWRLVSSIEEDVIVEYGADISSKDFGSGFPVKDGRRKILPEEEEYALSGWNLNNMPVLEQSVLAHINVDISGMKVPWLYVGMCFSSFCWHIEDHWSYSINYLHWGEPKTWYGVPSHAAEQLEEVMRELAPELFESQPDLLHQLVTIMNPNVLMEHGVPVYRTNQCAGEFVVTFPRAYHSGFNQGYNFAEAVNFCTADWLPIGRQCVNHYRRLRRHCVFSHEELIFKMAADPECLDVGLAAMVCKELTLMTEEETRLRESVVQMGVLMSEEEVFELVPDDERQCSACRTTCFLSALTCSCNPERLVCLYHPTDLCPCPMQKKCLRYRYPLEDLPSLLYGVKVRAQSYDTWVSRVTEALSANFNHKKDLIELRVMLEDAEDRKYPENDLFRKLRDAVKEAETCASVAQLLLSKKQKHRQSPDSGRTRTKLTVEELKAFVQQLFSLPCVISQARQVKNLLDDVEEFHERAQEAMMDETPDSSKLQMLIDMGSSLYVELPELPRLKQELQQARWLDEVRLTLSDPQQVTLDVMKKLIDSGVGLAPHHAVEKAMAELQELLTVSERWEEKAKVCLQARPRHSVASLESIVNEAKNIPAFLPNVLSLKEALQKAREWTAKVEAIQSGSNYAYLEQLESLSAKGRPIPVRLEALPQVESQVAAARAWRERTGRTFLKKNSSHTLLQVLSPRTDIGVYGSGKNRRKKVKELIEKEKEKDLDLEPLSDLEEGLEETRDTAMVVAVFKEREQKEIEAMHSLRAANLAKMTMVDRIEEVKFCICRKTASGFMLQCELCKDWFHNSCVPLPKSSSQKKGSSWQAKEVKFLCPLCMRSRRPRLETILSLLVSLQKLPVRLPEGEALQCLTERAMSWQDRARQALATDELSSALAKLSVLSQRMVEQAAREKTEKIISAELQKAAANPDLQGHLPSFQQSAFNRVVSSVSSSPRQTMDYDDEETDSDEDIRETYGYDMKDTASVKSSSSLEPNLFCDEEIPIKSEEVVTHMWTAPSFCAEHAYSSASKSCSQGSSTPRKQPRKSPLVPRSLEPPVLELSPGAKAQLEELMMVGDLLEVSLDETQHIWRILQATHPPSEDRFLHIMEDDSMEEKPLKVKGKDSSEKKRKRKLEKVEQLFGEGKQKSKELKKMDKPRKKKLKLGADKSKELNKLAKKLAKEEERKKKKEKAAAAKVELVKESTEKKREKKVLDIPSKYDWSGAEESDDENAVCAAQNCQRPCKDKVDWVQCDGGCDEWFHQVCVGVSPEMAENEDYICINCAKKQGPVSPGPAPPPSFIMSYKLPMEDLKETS
Lysine-specific demethylase 5C, sequence (P41229 whole entry): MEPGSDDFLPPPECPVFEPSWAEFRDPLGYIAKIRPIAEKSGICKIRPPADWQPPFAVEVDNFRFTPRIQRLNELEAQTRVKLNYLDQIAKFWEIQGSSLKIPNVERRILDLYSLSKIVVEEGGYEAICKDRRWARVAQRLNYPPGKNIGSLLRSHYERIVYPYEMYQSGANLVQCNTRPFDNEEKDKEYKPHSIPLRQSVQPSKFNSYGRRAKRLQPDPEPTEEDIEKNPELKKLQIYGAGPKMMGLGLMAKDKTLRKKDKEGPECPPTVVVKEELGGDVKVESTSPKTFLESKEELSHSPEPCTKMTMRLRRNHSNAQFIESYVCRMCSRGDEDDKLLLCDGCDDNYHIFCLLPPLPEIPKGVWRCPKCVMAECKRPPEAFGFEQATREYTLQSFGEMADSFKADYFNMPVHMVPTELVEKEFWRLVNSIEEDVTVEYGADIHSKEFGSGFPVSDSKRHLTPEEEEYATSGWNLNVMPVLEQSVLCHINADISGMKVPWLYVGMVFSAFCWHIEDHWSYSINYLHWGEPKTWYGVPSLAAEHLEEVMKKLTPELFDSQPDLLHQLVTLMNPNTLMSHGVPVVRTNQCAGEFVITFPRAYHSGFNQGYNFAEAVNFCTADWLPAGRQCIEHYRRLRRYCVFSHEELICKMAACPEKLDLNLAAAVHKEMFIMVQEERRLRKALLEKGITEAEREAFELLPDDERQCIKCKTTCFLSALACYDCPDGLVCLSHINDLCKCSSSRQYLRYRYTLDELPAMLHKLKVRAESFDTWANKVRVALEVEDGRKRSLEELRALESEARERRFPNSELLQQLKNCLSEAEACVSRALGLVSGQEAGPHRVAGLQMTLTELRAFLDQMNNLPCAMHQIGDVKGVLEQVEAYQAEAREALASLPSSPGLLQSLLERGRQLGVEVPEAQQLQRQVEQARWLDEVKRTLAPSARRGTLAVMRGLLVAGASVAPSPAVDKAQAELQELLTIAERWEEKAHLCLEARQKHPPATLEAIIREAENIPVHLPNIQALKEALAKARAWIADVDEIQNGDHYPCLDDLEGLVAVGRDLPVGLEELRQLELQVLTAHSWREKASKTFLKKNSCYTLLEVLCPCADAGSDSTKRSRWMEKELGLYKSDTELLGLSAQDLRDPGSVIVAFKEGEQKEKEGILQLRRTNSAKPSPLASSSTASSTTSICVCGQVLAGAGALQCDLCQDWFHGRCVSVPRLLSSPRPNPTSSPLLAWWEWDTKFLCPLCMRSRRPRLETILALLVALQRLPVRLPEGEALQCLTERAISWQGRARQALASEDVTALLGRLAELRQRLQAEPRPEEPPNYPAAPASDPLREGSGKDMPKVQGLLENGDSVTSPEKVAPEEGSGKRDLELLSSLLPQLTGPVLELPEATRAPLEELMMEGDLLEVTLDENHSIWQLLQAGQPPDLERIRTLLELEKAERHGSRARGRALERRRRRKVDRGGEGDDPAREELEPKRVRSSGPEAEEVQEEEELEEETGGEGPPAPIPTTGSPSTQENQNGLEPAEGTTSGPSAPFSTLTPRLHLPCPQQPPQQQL
Histone lysine demethylase PHF8 (Homo sapiens), sequence (Q9UPP1 whole entry): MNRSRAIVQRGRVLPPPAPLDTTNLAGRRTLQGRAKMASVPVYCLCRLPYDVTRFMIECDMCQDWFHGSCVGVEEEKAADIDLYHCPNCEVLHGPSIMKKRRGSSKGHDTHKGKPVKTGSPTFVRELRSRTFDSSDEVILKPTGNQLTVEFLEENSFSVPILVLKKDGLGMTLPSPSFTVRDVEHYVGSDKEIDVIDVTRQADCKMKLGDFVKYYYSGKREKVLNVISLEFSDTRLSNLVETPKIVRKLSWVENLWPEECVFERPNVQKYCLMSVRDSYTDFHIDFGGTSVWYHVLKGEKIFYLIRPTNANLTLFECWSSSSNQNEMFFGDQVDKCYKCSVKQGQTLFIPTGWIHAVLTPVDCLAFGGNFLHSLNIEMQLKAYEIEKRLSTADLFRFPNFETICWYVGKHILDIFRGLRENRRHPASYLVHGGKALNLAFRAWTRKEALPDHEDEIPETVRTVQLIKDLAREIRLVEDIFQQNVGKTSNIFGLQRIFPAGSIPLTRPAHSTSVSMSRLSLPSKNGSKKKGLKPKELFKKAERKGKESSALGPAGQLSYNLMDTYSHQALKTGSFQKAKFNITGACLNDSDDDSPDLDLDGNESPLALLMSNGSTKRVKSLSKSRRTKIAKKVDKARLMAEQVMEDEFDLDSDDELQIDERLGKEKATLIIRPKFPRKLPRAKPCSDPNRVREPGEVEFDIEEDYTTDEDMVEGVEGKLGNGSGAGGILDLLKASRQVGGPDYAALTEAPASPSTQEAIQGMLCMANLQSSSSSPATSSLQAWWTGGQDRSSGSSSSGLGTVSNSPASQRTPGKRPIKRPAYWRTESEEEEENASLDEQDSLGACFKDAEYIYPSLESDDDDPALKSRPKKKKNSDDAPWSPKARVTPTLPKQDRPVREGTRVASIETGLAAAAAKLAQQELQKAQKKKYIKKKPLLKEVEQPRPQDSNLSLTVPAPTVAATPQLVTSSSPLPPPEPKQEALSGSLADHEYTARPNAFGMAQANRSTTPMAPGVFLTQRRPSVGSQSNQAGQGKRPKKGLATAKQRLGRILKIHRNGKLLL

EC50 [1] [µM] | IC50 [2] [µM] | SMILES | further results
13.8 | 0.0093 | Cc1[nH]c2c(C#N)cnn2c(=O)c1C(C)C | –
1.3 | 0.0079 | CC(C)c1c(-c2cnn(C3CC3)c2)[nH]c2c(C#N)cnn2c1=O | fraction unbound [3]: 0.008; logD [4]: 0.74
11.3 | 0.0128 | C#CC(C)c1c(-c2ccccc2)[nH]c2c(C#N)cnn2c1=O (racemic) | –
> 30 | 0.0275 | CC(C)c1c(Nc2ccccc2)[nH]c2c(C#N)cnn2c1=O | pKa [5]: 8.2
7.5 | – | CC(C)c1c(-c2cccc(C(F)(F)F)c2)[nH]c2c(C#N)cnn2c1=O | –
– | 0.0289 | CC(C)c1c(-c2cccc(OC(F)(F)F)c2)[nH]c2c(C#N)cnn2c1=O | –
2 | 0.0133 | CC(C)c1c(-c2cnn(C)c2)[nH]c2c(C#N)cnn2c1=O | Vd [6]: 0.6 L/kg; clearance [7]: 59.9 mL/min/kg; fraction unbound [3]: 0.011; half-life [8]: 10.2 min; logD [4]: 0.4; bioavailability [9]: 61.3%
1.8 | 0.0104 | COCCn1cc(-c2[nH]c3c(C#N)cnn3c(=O)c2C(C)C)cn1 | fraction unbound [3]: 0.033; logD [4]: 0.4
– | 0.0175 | CC(C)c1c(/C=C/c2ccccc2)[nH]c2c(C#N)cnn2c1=O | –
> 30 | 0.0131 | CC(C)c1c(CCc2ccccc2)[nH]c2c(C#N)cnn2c1=O | –
2.3 | – | CCn1cc(-c2[nH]c3c(C#N)cnn3c(=O)c2C(C)C)cn1 | fraction unbound [3]: 0.005; logD [4]: 0.66
12.1 | 0.0095 | CCc1[nH]c2c(C#N)cnn2c(=O)c1C(C)C | –
0.34 | 0.0151 | CC(C)c1c(-c2cnn(C(C)(C)C)c2)[nH]c2c(C#N)cnn2c1=O | inhibition [10]: inactive; inhibition [11]: inactive; fCmax [12]: 5.2 µM; inhibition [13]: inactive; IC50 [14]: 0.0655 µM; inhibition [15]: inactive; IC50 [16]: 0.0047 µM; inhibition [17]: inactive; Vd [6]: 0.44 L/kg; fraction unbound [18]: 0.025; clearance [7]: 5 mL/min/kg; fraction unbound [3]: 0.012; Cmax [19]: 206 µM; half-life [8]: 78 min; logD [4]: 1.4; bioavailability [9]: 100%
– | 0.0204 | CC(C)c1c(-c2ccc(Cl)cc2)[nH]c2c(C#N)cnn2c1=O | –
> 30 | – | CC(C)c1c(-c2cncnc2)[nH]c2c(C#N)cnn2c1=O | –
1.2 | 0.0053 | CC(C)c1c(-c2cn[nH]c2)[nH]c2c(C#N)cnn2c1=O | fraction unbound [3]: 0.026
– | 0.0632 | CC(C)c1c(N2CCCCC2)[nH]c2c(C#N)cnn2c1=O | –
0.87 | 0.0112 | CC(C)c1c(-c2cnn(C3CCC3)c2)[nH]c2c(C#N)cnn2c1=O | fraction unbound [3]: 0.004; logD [4]: 1.3
– | 0.0359 | CC(C)c1c(-c2ccc(OC(F)(F)F)cc2)[nH]c2c(C#N)cnn2c1=O | –
– | 0.0203 | Cc1ccc(-c2[nH]c3c(C#N)cnn3c(=O)c2C(C)C)cc1 | –

EC50 [1] [µM] | IC50 [2] [µM] | SMILES | further results
8.3 | 0.0159 | CC(C)c1c(-c2cnn(C3COC3)c2)[nH]c2c(C#N)cnn2c1=O | fraction unbound [3]: 0.04; logD [4]: -0.1
> 30 | 0.0119 | CC(C)c1c(Cc2ccccc2)[nH]c2c(C#N)cnn2c1=O | –
– | 0.0182 | CC(C)c1c(-c2ccc(C(F)(F)F)cc2)[nH]c2c(C#N)cnn2c1=O | –
– | 0.0766 | CC(C)c1c(N(C)C)[nH]c2c(C#N)cnn2c1=O | –
– | 0.029 | CC(CO)c1c(-c2ccccc2)[nH]c2c(C#N)cnn2c1=O (configuration not stated) | –
16.4 | 0.0155 | C=CC(C)c1c(-c2ccccc2)[nH]c2c(C#N)cnn2c1=O (racemic) | –
1.7 | 0.0056 | CC(C)c1c(-c2cnn(-c3ccccc3)c2)[nH]c2c(C#N)cnn2c1=O | Vd [6]: 0.63 L/kg; clearance [7]: 7.7 mL/min/kg; fraction unbound [3]: 0.001; half-life [8]: 66 min; logD [4]: 1.8; bioavailability [9]: 21.3%
– | – | CC(C)c1c(-c2ccccc2)[nH]c2c(C#N)cnn2c1=O | pKa [20]: 6
28.4 | – | CCC(C)c1c(-c2ccccc2)[nH]c2c(C#N)cnn2c1=O (racemic) | –
> 30 | 0.018 | CC(C)c1c(Oc2ccccc2)[nH]c2c(C#N)cnn2c1=O | pKa [5]: 9.8
– | 0.0293 | N#Cc1cnn2c(=O)c(Br)c(-c3ccccc3)[nH]c12 | –
6.7 | 0.0062 | CC(C)c1c(-c2ccco2)[nH]c2c(C#N)cnn2c1=O | –
– | 0.319 | COC(=O)c1c(-c2ccccc2)[nH]c2c(C#N)cnn2c1=O | –
– | 0.0283 | CC(C)c1c[nH]c2c(C#N)cnn2c1=O | –
– | 0.0211 | C#CCc1c(-c2ccccc2)[nH]c2c(C#N)cnn2c1=O | –
– | 0.0201 | C=Cc1c(-c2ccccc2)[nH]c2c(C#N)cnn2c1=O | –
0.44 | 0.0138 | CC(C)c1c(-c2cnn(C(C)C)c2)[nH]c2c(C#N)cnn2c1=O | Vd [6]: 0.54 L/kg; clearance [7]: 15.7 mL/min/kg; fraction unbound [3]: 0.013; half-life [8]: 36.6 min; logD [4]: 0.93; bioavailability [9]: 69.5%
2.9 | 0.0101 | CC(C)c1c(-c2cnn(CCC#N)c2)[nH]c2c(C#N)cnn2c1=O | fraction unbound [3]: 0.066; logD [4]: -0.45
> 30 | 0.0092 | N#Cc1cnn2c(=O)c(C3CCC3)c(-c3ccccc3)[nH]c12 | –

SMILES | EC50 [1] [µM] | IC50 [2] [µM] | further results
COc1cc(-c2[nH]c3c(C#N)cnn3c(=O)c2C(C)C)ccn1 | – | 0.0316 | –
CC(C)c1c(-c2cccnc2)[nH]c2c(C#N)cnn2c1=O | 9.3 | 0.0123 | –
C=C(C)c1c(-c2ccccc2)[nH]c2c(C#N)cnn2c1=O | – | 0.0247 | –
